Measured values taken from patent US20260137696A1, “Compositions Comprising an Inhibitor of Galectin-3” (University of Liverpool, priority 2023, published 2026).
Entries after “also recorded” stand apart in the source; their conditions may differ.

Experiments:
[1] = test system: galectin-3 knockout (Gal3KO) MDA-MB-231 cells; assay: Triple-negative breast cancer cell adhesion to basement matrix, galectin-3 knockout; assay type: cell-based, human; settings: galectin-3 knockout by CRISPR/Cas9 (FIG. 15C, 15D)
Description: (§1) Nanty-six well plates were coated with 50 μl Matrigel (1:30 diluted in PBS) at 37° C. for 1 hour. Cancer cells, pre-labelled with fluorescent die DiI at 37° C. for 20 minutes, were washed twice with PBS and resuspended into 3×10^4 cells/ml in serum-free medium. The matrix-coated 96-well plates were washed twice with PBS before introduction of […] cell suspension with different concentrations of the inhibitors or PBS/DMSO (control) for 1 hour at 37° C. The plates were washed twice with PBS before three randomly selected Field of Views (FOVs) were recorded by fluorescence microscope and number of adhesion cells were quantified by Image J.
MDAMB-231 or PANC-1 cells were seeded into 6-well plate (2×10^5 cells) and cultured at 37° C. for 24 hour. Galectin-3 CRISPR Cas9 Knockout plasmid (2 μg) and galectin-3 HDR plasmid (2 μg) was mixed with Plasmid Transfection Medium (21 μl) for 5 minutes before addition to a mixture of lipofectamine STEM Transfection Reagent (STEM00001) (1 μl) and Plasmid Transfection Medium (25 μl) for 10 minutes at room temperature. The cells in the 6-well plates were washed and introduced with the Plasmid DNA/Lipofectamine STEM Transfection Reagent complex at 37° C. for 24 hours. […] Successful co-transfection of the CRISPR/Cas9 KO Plasmid and HDR Plasmid was confirmed by expression of red fluorescence protein of the cells. […]

HUVECs = assay: Vascular cell tubule formation (angiogenesis); assay type: cell-based, human; settings: different concentrations
Description: Vascular cell tubule formation was assessed with HUVECs in the absence or presence of different concentrations of the compounds of Formula I or Formula II.
Matrigel matrix (50 μl) was added to 96-well plates for 60 min at 37° C. to allow gel formation. HUVEC cells (1×10^5 cells/ml in 1:1 EGM/EBM2 media) was introduced to the plates without or with Galectin-3 (2 μg/ml) or different concentrations of compound inhibitors for 24 hr at 37° C. Endothelial cell tube formation was examined with Leica DMLA Laser Microscope. The total number of branching points and the sum of the lengths of tubes were calculated.

Galectin-3 = target: T1, Galectin-3 (Homo sapiens, UniProt P17931); assay: Binding affinity to Galectin-3 by Tryptophan Fluorescence Spectroscopy (TFS); settings: Galectin-3 10 μM, titration 0 to 224 μM
T1 construct: made in house; host or cells: E. coli
T1 sequence (P17931 whole entry): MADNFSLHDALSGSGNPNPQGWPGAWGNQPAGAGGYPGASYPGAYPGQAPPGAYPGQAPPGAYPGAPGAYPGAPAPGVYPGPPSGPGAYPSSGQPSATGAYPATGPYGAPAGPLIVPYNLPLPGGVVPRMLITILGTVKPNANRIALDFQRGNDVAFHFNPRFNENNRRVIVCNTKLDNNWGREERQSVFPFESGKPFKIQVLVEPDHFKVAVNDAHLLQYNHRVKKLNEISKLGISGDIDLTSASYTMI
Description: The binding affinity of the compounds of Formula I and Formula II to Galectin-3 is assessed by Tryptophan Fluorescence Spectroscopy (TFS). The compounds of Formula I and Formula II bind to Galectin-3 with binding affinity (KD) at low μM;
FIG. 2A and FIG. 2B show analysis of the binding affinity of the compounds of Formula I and Formula II to Galectin-3. The binding affinity of the compounds of Formula I and Formula II to Galectin-3 is assessed by Tryptophan Fluorescence Spectroscopy (TFS). The compounds of Formula I and Formula II bind to Galectin-3 with binding affinity (KD) at low μM.
The binding affinity of the inhibitors to Galectin-3 was determined by Intrinsic Tryptophan Fluorescence Spectroscopy (TFS) exactly as we described recently (Sindrewicz, P., et al., Intrinsic tryptophan fluorescence spectroscopy reliably determines galectin-ligand interactions. Sci Rep, 2019. 9(1): p. 11851, herein incorporated by reference). The Galectin-3 concentration used was 10 μM and the inhibitor titration concentrations were from 0 to 224 μM. DMSO/control buffer (PBS with 2 mM EDTA) titrations were performed and used for background subtraction.
The binding affinities of the compounds of Formula I and compounds of Formula II to Galectin-3 was determined by Tryptophan Fluorescence spectroscopy (TFS) [Sindrewicz, P., et al., Intrinsic tryptophan fluorescence spectroscopy reliably determines galectin-ligand interactions. Scientific Reports, 2019. 9(1): p. 11851, herein incorporated by reference] The Galectin-3 concentration used was 10 μM and the compounds of Formula I and compounds of Formula II titration concentrations were from 0 to 224 μM. DMSO/control buffer (PBS with 2 mM EDTA) titrations were performed and used for background subtraction.

MDA-MB-231 cell = assay: Triple-negative breast cancer cell adhesion to basement matrix; assay type: cell-based, human; settings: for adhesion of control (Con) MDA-MB-231 cells: non-transfected cells (FIG. 15C, 15D); for MDA-MB-231 cell adhesion to matrix: different concentrations (FIG. 15A, 15B)
Description: as §1

H1975 cell = assay: Lung cancer cell adhesion to basement matrix; assay type: cell-based, human; settings: for IC50: Homo sapiens, NCI-H1975; for H1975 cell adhesion to matrix: different concentrations
Description: as §1

SW620^Gal3− cells = assay: Tumour cell adhesion to laminin; assay type: cell-based, human; settings: 10 μM; Galectin-3-suppressed SW620^Gal3− cells
Description: (§2) White wall 96-well plates were coated with laminin (20 μg/ml) in coating buffer (15 mM Na2CO3 17 mM NaHCO3 pH 9.6) overnight at room temperature. ZsGreen- and luciferase-transfected SW620Gal3+, SW620Gal-3, or ACA19+ cells (5×10^5 cells/ml) were pre-incubated without or with 10 μM of the compound of Formula I or the compound of Formula II for 10 minutes before added into laminin-coated plates for 30 min at 37° C. The plates were washed twice with PBS before lysed by PLB for 5 min on a shaker. Luciferase Assay Reagent was then added before luminescence was measured using Tecan Infinite F200 microplate reader.
(§3) Nanty-six well plates were coated with matrix protein laminin (20 μg/ml) in coating buffer overnight. ZsGreen- and luciferase-labelled SW620Gal3− and SW620Gal3+ cells (5×10^5 cells/ml) were mixed without or with 10 μM inhibitors for 15 minutes before introduced to the laminin-coated plates for 30 minutes at 37° C. The plates were washed twice with PBS and the bound cells were lysed by Passive lysis buffer. After addition of Luciferase Assay Reagent (LAR) for 10 minutes, the luminescence intensity in the wells was measured by a microplate reader.

SW620^Gal3+ cells = assay: Tumour cell adhesion to laminin; assay type: cell-based, human; settings: 10 μM; Galectin-3-expressing SW620^Gal3+ cells
Description: as §2, §3

SMILES	adhesion of Gal3KO MDA-MB-231 cells [1]	HUVEC tubule formation, tubule numbers (HUVECs)	HUVEC tubule formation, vascular tubule length (HUVECs)	Kd (Galectin-3) [µM]	binding affinity (Kd) to Galectin-3 (Galectin-3)	adhesion of control (Con) MDA-MB-231 cells (MDA-MB-231 cell)	MDA-MB-231 cell adhesion to matrix (MDA-MB-231 cell)	IC50 (H1975 cell) [µM]	H1975 cell adhesion to matrix (H1975 cell)	adhesion to matrix protein component laminin (SW620^Gal3− cells)	adhesion to matrix protein component laminin (SW620^Gal3+ cells)
C[C@H]1COc2c(N3CCN(C)CC3)c(F)cc3c(=O)c(C(=O)NNc4cccc(N)c4)cn1c23 [Formula II]	lost their inhibitory effect	dose-dependently inhibition	dose-dependently inhibition	30	low μM	significant reduction; also recorded: significant inhibition	dose-dependent inhibition	~10	dose-dependently inhibits	much reduced effect	significantly inhibits
C[C@H]1COc2c(N3CCN(C)CC3)c(F)cc3c(=O)c(C(=O)NNc4ccc(N)cc4)cn1c23 [Formula I]	lost their inhibitory effect	dose-dependently inhibition	dose-dependently inhibition	18	low μM	significant reduction; also recorded: significant inhibition	dose-dependent inhibition	> 20	dose-dependently inhibits	much reduced effect	significantly inhibits
